Tests used:
[1] = test system: SW684; test: OncoPanel cell proliferation assay, SW684; format: cell-based, human; details: for GI50: read-out: Cell Count GI50
Procedure: (§1) Cells were seeded into 384-well plates and incubated in a humidified atmosphere of 5% CO2 at 37° C. Compounds were added the day following cell seeding. At the same time, a time zero untreated cell plate was generated. After a 3-day incubation period, cells were fixed and stained to allow fluorescence imaging of nuclei. Compounds (1 mM stock solutions) were serially diluted in half-log steps from the highest test concentration ([…]), and assayed over 10 concentrations with a maximum assay concentration of 0.1% DMSO. Automated fluorescence microscopy was carried out using a Molecular Devices ImageXpress Micro XL high-content imager, and images were collected with a 4× objective. 16-bit TIFF images were acquired and analyzed with MetaXpress 5.1.0.41 software.
(§2) Cell proliferation was measured by the fluorescence intensity of an incorporated nuclear dye. The output is referred to as the relative cell count, where the measured nuclear intensity is transformed to percent of control (POC) using the following formula: […]
(§3) Cellular response parameters were calculated using nonlinear regression to a sigmoidal single-site dose response model:
(§4) GI50 is the concentration needed to reduce the observed growth by half (midway between the curve maximum and the time zero value). […] In rare instances, values <0 or >10 may be observed. […] Curve-fitting, calculations, and report generation was performed using a custom data reduction engine and MathIQ based software (AIM).

[2] = test system: A101D; test: OncoPanel cell proliferation assay, A101D; format: cell-based, human; details: for EC50: read-out: Cell Count EC50; for GI50: read-out: Cell Count GI50
Procedure: as §1, with “Cells were grown in RPMI 1640, 10% FBS, 2 mM L-alanyl-L-glutamine, 1 mM Na pyruvate, or a special medium. Cells” for “Cells”
as §2, §3
(§5) EC50 is the test compound concentration at the curve inflection point or half the effective response (parameter C of the fitted curve solution). GI50 is the concentration needed to reduce the observed growth by half (midway between the curve maximum and the time zero value). “Cell Count Activity Area” is an estimate of the integrated area above the curve (Barretina, et al. The Cancer Cell Line Encyclopedia enables predictive modelling of anticancer drug sensitivity. Nature 483: 603-607). […] In rare instances, values <0 or >10 may be observed. […] Curve-fitting, calculations, and report generation was performed using a custom data reduction engine and MathIQ based software (AIM).

[3] = test system: A431; test: OncoPanel cell proliferation assay, A431; format: cell-based, human; details: for GI50: A-431, read-out: Cell Count GI50; for IC50: A-431, read-out: Cell Count IC50
Procedure: as §1, with “Cells were grown in RPMI 1640, 10% FBS, 2 mM L-alanyl-L-glutamine, 1 mM Na pyruvate, or a special medium. Cells” for “Cells”
as §2, §3, §5

[4] = test system: CEM-C1; test: OncoPanel cell proliferation assay, CEM-C1; format: cell-based, human; details: for GI50: read-out: Cell Count GI50; for IC50: read-out: Cell Count IC50
Procedure: as §1, with “Cells were grown in RPMI 1640, 10% FBS, 2 mM L-alanyl-L-glutamine, 1 mM Na pyruvate, or a special medium. Cells” for “Cells”
as §2, §3, §5

[5] = test system: DMS114; test: OncoPanel cell proliferation assay, DMS114; format: cell-based, human; details: for EC50: DMS-114, read-out: Cell Count EC50; for GI50: DMS-114, read-out: Cell Count GI50
Procedure: as §1, §2, §3, §4

[6] = test system: SK-MEL-28; test: OncoPanel cell proliferation assay, SK-MEL-28; format: cell-based, human; details: for GI50: read-out: Cell Count GI50; for IC50: read-out: Cell Count IC50
Procedure: as §1, with “Cells were grown in RPMI 1640, 10% FBS, 2 mM L-alanyl-L-glutamine, 1 mM Na pyruvate, or a special medium. Cells” for “Cells”
as §2, §3, §5

[7] = test system: MES-SA; test: OncoPanel cell proliferation assay, MES-SA; format: cell-based, human; details: for GI50: read-out: Cell Count GI50
Procedure: as §1, with “Cells were grown in RPMI 1640, 10% FBS, 2 mM L-alanyl-L-glutamine, 1 mM Na pyruvate, or a special medium. Cells” for “Cells”
as §2, §3, §5

[8] = test system: RL95-2; test: OncoPanel cell proliferation assay, RL95-2; format: cell-based, human; details: for GI50: read-out: Cell Count GI50
Procedure: as §1, with “Cells were grown in RPMI 1640, 10% FBS, 2 mM L-alanyl-L-glutamine, 1 mM Na pyruvate, or a special medium. Cells” for “Cells”
as §2, §3, §5

[9] = test system: ST486; test: OncoPanel cell proliferation assay, ST486; format: cell-based, human; details: for GI50: read-out: Cell Count GI50; for IC50: read-out: Cell Count IC50
Procedure: as §1, with “Cells were grown in RPMI 1640, 10% FBS, 2 mM L-alanyl-L-glutamine, 1 mM Na pyruvate, or a special medium. Cells” for “Cells”
as §2, §3, §5

[10] = test system: RKOE6; test: OncoPanel cell proliferation assay, RKOE6; details: for EC50 / GI50 / IC50: Homo sapiens; for EC50: RKOE6, read-out: Cell Count EC50; for GI50: RKOE6, read-out: Cell Count GI50; for IC50: RKOE6, read-out: Cell Count IC50; for Cell Count Activity Area: RKOE6
Procedure: (§6) Cells were seeded into 384-well plates and incubated in a humidified atmosphere of 5% CO2 at 37° C. Compounds were added the day following cell seeding. At the same time, a time zero untreated cell plate was generated. After a 3-day incubation period, cells were fixed and stained to allow fluorescence imaging of nuclei. Compounds (1 mM stock solutions) were serially diluted in half-log steps from the highest test concentration (1 micromol), and assayed over 10 concentrations with a maximum assay concentration of 0.1% DMSO. Automated fluorescence microscopy was carried out using a Molecular Devices ImageXpress Micro XL high-content imager, and images were collected with a 4× objective. 16-bit TIFF images were acquired and analyzed with MetaXpress 5.1.0.41 software.

[11] = test system: AsPC-1; test: OncoPanel cell proliferation assay, AsPC-1; details: for Cell Count Activity Area: AsPC-1
Procedure: as §6

[12] = test system: CHP-212; test: OncoPanel cell proliferation assay, CHP-212; details: for Cell Count Activity Area: CHP-212; for GI50: CHP-212, read-out: Cell Count GI50; for IC50: CHP-212, read-out: Cell Count IC50
Procedure: as §6

[13] = Homo sapiens, read-out: Cell Count IC50
[14] = Homo sapiens, read-out: Cell Count EC50

Structure (SMILES): CN[C@@H]1C[C@H]2O[C@@](C)([C@@H]1OC)n1c3ccccc3c3c4c(c5c6ccccc6n2c5c31)C(=O)NC4 [Staurosporine, reference compound]
- GI50 ([1]; Homo sapiens): 0.95 nM
- Cell Count Activity Area [2]: 4.56
- EC50 ([2]; Homo sapiens): 7.02 nM
- GI50 ([2]; Homo sapiens): 2.65 nM
- Cell Count Activity Area [3]: 5.64
- GI50 ([3]; Homo sapiens): 1.03 nM
- IC50 ([3]; Homo sapiens): 1.19 nM
- Cell Count Activity Area [4]: 4.28
- GI50 ([4]; Homo sapiens): 7.27 nM
- IC50 ([4]; Homo sapiens): 9.2 nM
- EC50 ([5]; Homo sapiens): 21 nM
- GI50 ([5]; Homo sapiens): 3.35 nM
- Cell Count Activity Area [6]: 2.81
- GI50 ([6]; Homo sapiens): 32.1 nM
- IC50 ([6]; Homo sapiens): 64.3 nM
- Cell Count Activity Area [7]: 2.80
- GI50 ([7]; Homo sapiens): 13 nM
- Cell Count Activity Area [8]: 3.87
- GI50 ([8]; Homo sapiens): 6.83 nM
- Cell Count Activity Area [9]: 4.89
- GI50 ([9]; Homo sapiens): 2.83 nM
- IC50 ([9]; Homo sapiens): 4.61 nM
- EC50 [10]: 16.8 nM
- GI50 [10]: 13.2 nM
- IC50 [10]: 17.9 nM
- Cell Count Activity Area [10]: 3.96
- Cell Count Activity Area [11]: 3.28
- Cell Count Activity Area [12]: 4.80
- GI50 ([12]; Homo sapiens): 2.59 nM
- IC50 ([12]; Homo sapiens): 4.78 nM

Structure (SMILES): CO[C@H]1C[C@@H]2CC[C@@H](C)[C@@](O)(O2)C(=O)C(=O)N2CCCC[C@H]2C(=O)O[C@H]([C@H](C)C[C@@H]2CC[C@@H](O)[C@H](OC)C2)CC(=O)[C@H](C)/C=C(\C)[C@@H](O)[C@@H](OC)C(=O)[C@H](C)C[C@H](C)/C=C/C=C/C=C/1C [Rapamycin, reference compound]
- Cell Count Activity Area [1]: 2.81
- GI50 ([1]; Homo sapiens): 1.97 nM
- IC50 [1, 13]: > 1000 nM
- Cell Count Activity Area [2]: 2.92
- EC50 ([2]; Homo sapiens): 0.184 nM
- GI50 ([2]; Homo sapiens): 0.721 nM
- IC50 [2, 13]: > 1000 nM
- Cell Count Activity Area [3]: 0.28
- EC50 ([3]; Homo sapiens, A-431, read-out: Cell Count EC50): > 1000 nM
- GI50 ([3]; Homo sapiens): > 1000 nM
- IC50 ([3]; Homo sapiens): > 1000 nM
- Cell Count Activity Area [4]: 3.61
- EC50 [4, 14]: 0.265 nM
- GI50 ([4]; Homo sapiens): 4.36 nM
- IC50 ([4]; Homo sapiens): > 1000 nM
- Cell Count Activity Area [5]: 4.14
- EC50 ([5]; Homo sapiens): 0.0747 nM
- GI50 ([5]; Homo sapiens): 0.0478 nM
- IC50 ([5]; Homo sapiens, DMS-114, read-out: Cell Count IC50): > 1000 nM
- Cell Count Activity Area [6]: 2.50
- EC50 [6, 14]: 0.654 nM
- GI50 ([6]; Homo sapiens): 98.7 nM
- IC50 ([6]; Homo sapiens): > 1000 nM
- Cell Count Activity Area [7]: 5.39
- EC50 [7, 14]: 0.174 nM
- GI50 ([7]; Homo sapiens): 0.294 nM
- IC50 [7, 13]: 0.415 nM
- Cell Count Activity Area [8]: 4.24
- EC50 [8, 14]: 0.0705 nM
- GI50 ([8]; Homo sapiens): 0.13 nM
- IC50 [8, 13]: > 1000 nM
- Cell Count Activity Area [9]: 3.99
- EC50 [9, 14]: 0.0354 nM
- GI50 ([9]; Homo sapiens): 0.0524 nM
- IC50 ([9]; Homo sapiens): > 1000 nM
- EC50 [10]: 0.0835 nM
- GI50 [10]: 0.356 nM
- IC50 [10]: 1.06 nM
- Cell Count Activity Area [10]: 4.61
- Cell Count Activity Area [11]: 1.48
- EC50 ([11]; Homo sapiens, ASPC1, read-out: Cell Count EC50): > 1000 nM
- GI50 ([11]; Homo sapiens, ASPC1, read-out: Cell Count GI50): > 1000 nM
- IC50 ([11]; Homo sapiens, ASPC1, read-out: Cell Count IC50): > 1000 nM
- Cell Count Activity Area [12]: 4.13
- EC50 ([12]; Homo sapiens, CHP-212, read-out: Cell Count EC50): 0.0376 nM
- GI50 ([12]; Homo sapiens): 0.0707 nM
- IC50 ([12]; Homo sapiens): > 1000 nM
